According to ChEMBL document CHEMBL2176972, “Potential use of selective and nonselective Pim kinase inhibitors for cancer therapy” (J Med Chem, 2012):
pIC50, pKi: −log10 of the molar value.

Assays:
[1] = target: Serine/threonine-protein kinase pim-2 (Homo sapiens, UniProt Q9P1W9); experiment: Competitive inhibition of PIM2 in presence of ATP
[2] = target: Casein kinase II subunit alpha (Homo sapiens, UniProt P68400); experiment: Competitive inhibition of CK2alpha using RRREDEESDDEE as substrate after 5 mins by scintillation counter in presence of [gamma-32P]ATP
[3] = target: Serine/threonine-protein kinase pim-1 (Homo sapiens, UniProt P11309); experiment: Competitive inhibition of PIM1 using KKRNRTLTV as substrate after 5 mins by scintillation counter in presence of [gamma-32P]ATP
[4] = target: T1, Serine/threonine-protein kinase haspin (Homo sapiens, UniProt Q8TF76); experiment: Inhibition of haspin
T1 sequence (Q8TF76 whole entry): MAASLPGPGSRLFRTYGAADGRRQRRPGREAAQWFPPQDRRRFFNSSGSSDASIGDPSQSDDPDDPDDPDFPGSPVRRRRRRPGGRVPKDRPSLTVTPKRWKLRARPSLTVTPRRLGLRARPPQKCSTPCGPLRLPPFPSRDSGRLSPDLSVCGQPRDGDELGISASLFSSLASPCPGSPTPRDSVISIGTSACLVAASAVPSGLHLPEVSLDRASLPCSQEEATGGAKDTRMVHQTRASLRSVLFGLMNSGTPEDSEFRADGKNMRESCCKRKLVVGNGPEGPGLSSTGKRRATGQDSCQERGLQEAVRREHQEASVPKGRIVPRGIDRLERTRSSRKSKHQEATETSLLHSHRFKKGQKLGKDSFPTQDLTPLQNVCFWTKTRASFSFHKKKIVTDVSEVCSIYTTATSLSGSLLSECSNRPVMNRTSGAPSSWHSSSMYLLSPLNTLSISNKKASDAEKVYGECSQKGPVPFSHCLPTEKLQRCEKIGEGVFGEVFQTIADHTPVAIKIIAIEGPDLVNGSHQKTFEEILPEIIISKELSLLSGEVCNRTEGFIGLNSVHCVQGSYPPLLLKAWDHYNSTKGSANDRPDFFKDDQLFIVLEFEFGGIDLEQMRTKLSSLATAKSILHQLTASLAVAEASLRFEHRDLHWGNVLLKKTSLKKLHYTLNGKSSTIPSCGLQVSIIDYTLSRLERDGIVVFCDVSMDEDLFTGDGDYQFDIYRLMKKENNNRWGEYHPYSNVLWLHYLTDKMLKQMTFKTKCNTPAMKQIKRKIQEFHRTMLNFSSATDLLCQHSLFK

Question: `O=C1NC(=O)/C(=C/c2cccc(C(F)(F)F)c2)S1` was tested. Which pKi [1] did it give?
Answer: 7.00

Question: `O=C(O)c1cc2c(ccc3cc4c(ccc5oc(C(=O)O)cc54)cc32)o1` was tested. Which pIC50 [2] did it give?
Answer: 7.20

Question: And the pIC50 [3]?
Answer: 7.70

Question: `CN1CCC(CNc2ccc3ncc(-c4cccc(OC(F)(F)F)c4)n3n2)CC1` [SGI-1776] was tested. Which pIC50 [4] did it give?
Answer: 7.47
